The record followed here is patent US11285135B2 (AMGEN INC., priority 2016, dated 2022).

Each structure is given as a SMILES string.

Chain of GDP-bound protein (aa 1-169), containing both G12C and C118A amino acid substitutions (P01116 1-169 isoform P01116-2 G12C/C118A): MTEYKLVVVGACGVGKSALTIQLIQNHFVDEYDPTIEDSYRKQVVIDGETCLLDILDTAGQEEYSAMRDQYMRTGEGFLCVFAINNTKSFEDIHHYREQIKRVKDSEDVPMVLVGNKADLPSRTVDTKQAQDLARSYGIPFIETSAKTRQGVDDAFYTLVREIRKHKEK

The assay has as its target GDP-bound protein (aa 1-169), containing both G12C and C118A amino acid substitutions (Homo sapiens, UniProt P01116, C118A/G12C). Description: Coupled Nucleotide Exchange Assay (SOS-mediated nucleotide exchange, AlphaScreen). Type of assay: biochemical. The settings on record: 2 hours compound pre-incubation. The method, then: Coupled Nucleotide Exchange Assay: Purified GDP-bound […] protein (aa 1-169), containing both G12C and C118A amino acid substitutions and an N-terminal His-tag, was pre-incubated with a compound dose-response titration for 2 hours in assay buffer (25 mM HEPES pH 7.4, 10 mM MgCl2, and 0.01% Triton X-100). Following compound pre-incubation, purified SOS protein (aa 564-1049) and GTP (Roche 10106399001) were added to the assay wells and incubated for an additional hour. […] The assay plates were then read on a PerkinElmer EnVision Multilabel Reader, using AlphaScreen® technology, and data were analyzed using a 4-parameter logistic model to calculate IC50 values.
Background: Bead proximity is the source of the signal in Alpha formats.
For `C=CC(=O)NC1(CO)CN(c2snc3c(F)c(-c4cc(O)cc5ccccc45)c(Cl)cc23)C1` [Example 5-3, N-(1-(5-chloro-7-fluoro-6-(3-hydroxy-1-naphthalenyl)-2,1-benzothiazol-3-yl)-3-(hydroxymethyl)-3-azetidinyl)-2-propenamide], the “Coupled exchange IC50” value amounted to 14.2 µM. The result for `C=CC(=O)N1CCN(c2nnc(OC)c3cc(-c4c(O)cccc4F)c(Cl)cc23)CC1` (single isomer, unassigned) [Example 32, 2-(1-(4-Acryloyl-1-piperazinyl)-7-chloro-4-methoxy-6-phthalazinyl)-3-fluorophenol] reads 28.6 µM. For `C=CC(=O)N1[C@@H]2CC[C@H]1CN(c1snc3c(F)c(-c4cc(O)cc5ccccc45)c(Cl)cc13)C2` [Example 1-17, 1-((1R,5S)-3-(5-chloro-7-fluoro-6-(3-hydroxy-1-naphthalenyl)-2,1-benzothiazol-3-yl)-3,8-diazabicyclo[3.2.1]octan-8-yl)-2-propen-1-one] the value was 63.5 µM.

On to `C=CC(=O)N1CCN(c2snc3nc(-c4c(C)ccc5[nH]ncc45)c(Cl)cc23)C(C)C1` (single isomer, unassigned) [Example 2-6-1, 1-((3S)-4-(5-chloro-6-(5-methyl-1H-indazol-4-yl)[1,2]thiazolo[3,4-b]pyridin-3-yl)-3-methyl-1-piperazinyl)-2-propen-1-one or 1-((3R)-4-(5-chloro-6-(5-methyl-1H-indazol-4-yl)[1,2]thiazolo[3,4-b]pyridin-3-yl)-3-methyl-1-piperazinyl)-2-propen-1-one], for which the “Coupled exchange IC50” value amounted to 13.0 µM. `C=C(CCO)C(=O)N1CCN(c2snc3c(F)c(-c4cc(O)cc5ccccc45)c(Cl)cc23)CC1` [Example 20, 1-(4-(5-chloro-7-fluoro-6-(3-hydroxy-1-naphthalenyl)-2,1-benzothiazol-3-yl)-1-piperazinyl)-4-hydroxy-2-methylidene-1-butanone]: the “Coupled exchange IC50” value was determined as 78.8 µM.

For `C=CC(=O)N1CCN(c2snc3c(F)c(-c4cc(O)cc5ccccc45)c(Cl)cc23)CC1C(N)=O` (racemic) [Example 1-12, 4-(5-chloro-7-fluoro-6-(3-hydroxy-1-naphthalenyl)-2,1-benzothiazol-3-yl)-1-(2-propenoyl)-2-piperazinecarboxamide], the “Coupled exchange IC50” value turned out to be 11.8 µM. The result for `C=CC(=O)NC1(C)CN(c2snc3c(F)c(-c4cc(O)cc5ccccc45)c(Cl)cc23)C1` [Example 5-2, N-(1-(5-chloro-7-fluoro-6-(3-hydroxy-1-naphthalenyl)-2,1-benzothiazol-3yl)-3-methyl-3-azetidinyl)-2-propenamide] reads 14.2 µM; that for `C=CC(=O)N1CCN(c2nnc(Cc3ccccc3)c3cc(Cl)c(-c4c(O)cccc4F)cc23)CC1` [Example 36, 2-(4-(4-acryloyl-1-piperazinyl)-1-benzyl-7-chloro-6-phthalazinyl)-3-fluorophenol], 39.8 µM; that for `C=CC(=O)NC1CN(c2snc3c(F)c(Br)c(Cl)cc23)C1` [Example 4-4, N-(1-(6-bromo-5-chloro-7-fluoro-2,1-benzothiazol-3-yl)-3-azetidinyl)-2-propenamide], greater than 250 µM. In the case of `C=CC(=O)N1CCN(c2snc3c(F)c(-c4cc(O)c(Cl)cc4Cl)c(Cl)cc23)CC1` [Example 3-17, 1-(4-(5-chloro-6-(2,4-dichloro-5-hydroxyphenyl)-7-fluoro-2,1-benzothiazol-3-yl)-1-piperazinyl)-2-propen-1-one], the “Coupled exchange IC50” value turned out to be 5.48 µM. For `C=CC(=O)N1CCN(c2snc3c(F)c(-c4cnccc4C(C)C)c(Cl)cc23)CC1` [Example 3-21, 1-(4-(5-chloro-7-fluoro-6-(4-(2-propanyl)-3-pyridinyl)-2,1-benzothiazol-3-yl)-1-piperazinyl)-2-propen-1-one] the value was 32.0 µM. For `C=CC(=O)N1CCN(c2snc3c(F)c(-c4cc(N)cc(C#N)c4)c(Cl)cc23)CC1` [Example 3-25, 3-amino-5-(5-chloro-7-fluoro-3-(4-(2-propenoyl)-1-piperazmyl)-2,1-benzothiazol-6-yl)benzonitrile] the value was greater than 250 µM; for `C=CC(=O)N1CC2(C1)CN(c1snc3c(F)c(-c4cc(OC)cc5ccccc45)c(Cl)cc13)C2` [Example 4-3, 1-(6-(5-chloro-7-fluoro-6-(3-methoxy-1-naphthalenyl)-2,1-benzothiazol-3-yl)-2,6-diazaspiro[3,3]heptan-2-yl)-2-propen-1-one], greater than 250 µM; for `C=CC(=O)N1CCN(c2nnc(-c3ccccc3C)c3cc(-c4c(O)cccc4F)c(Cl)cc23)CC1` [Example 10-1, 1-(4-(7-Chloro-6-(2-fluoro-6-hydroxyphenyl)-4-(2-methylphenyl)-1-phthalazinyl)-1-piperazinyl)-2-propen-1-one], 24.5 µM.

On to `C=CC(=O)N1CCN(c2snc3c(F)c(-c4cccc5ccncc45)c(Cl)cc23)CC1` [Example 3-3, 1-(4-(5-chloro-7-fluoro-6-(8-isoquinolinyl)-2,1-benzothiazol-3-yl)-1-piperazinyl)-2-propen-1-one], for which the “Coupled exchange IC50” value is 11.3 µM.

Turning to `C=CC(=O)N1CCC[C@@H](Nc2snc3c(F)c(-c4cc(O)cc5ccccc45)c(Cl)cc23)C1` [Example 4-9, 1-((3R)-3-((5-chloro-7-fluoro-6-(3-hydroxynaphthalen-1-yl)benzo[c]isothiazol-3-yl)amino)piperidin-1-yl)prop-2-en-1-one], the “Coupled exchange IC50” value was greater than 250 µM. In the case of `C=CC(=O)N1CCN(c2snc3c(F)c(-c4cccc5[nH]c(=O)ccc45)c(Cl)cc23)CC1` [Example 3-4, 5-(5-chloro-7-fluoro-3-(4-(2-propenoyl)-1-piperazinyl)-2,1-benzothiazol-6-yl)-2(1H)-quinolinone], the “Coupled exchange IC50” value is greater than 250 µM.

For the molecule `C=CC(=O)N1CCN(c2snc3c(F)c(-c4c(OC)ccc5ccccc45)c(Cl)cc23)CC1` [Example 1-13, 1-(4-(5-chloro-7-fluoro-6-(2-methoxy-1-naphthalenyl)-2,1-benzothiazol-3-yl)-1-piperazinyl)-2-propen-1-one], the “Coupled exchange IC50” value is greater than 10 µM. The result for `C=CC(=O)N1CCN(c2snc3c(F)c(-c4cc(O)cc5cn(C)nc45)c(Cl)cc23)CC1` [Example 19-3, 1-(4-(5-chloro-7-fluoro-6-(5-hydroxy-2-methyl-2H-indazol-7-yl)-2,1-benzothiazol-3-yl)-1-piperazinyl)-2-propen-1-one] reads 115 µM. For `C=CC(=O)N[C@@H]1CCN(c2snc3c(F)c(-c4cc(O)cc5ccccc45)c(Cl)cc23)C1` [Example 1-22, N-((3R)-1-(5-chloro-7-fluoro-6-(3-hydroxy-1-naphthalenyl)-2,1-benzothiazol-3-yl)-3-pyrrolidinyl)-2-propenamide], the “Coupled exchange IC50” value is greater than 250 µM.

Regarding `C=CC(=O)N1CCN(c2snc3c(F)c(-c4cccc5ccc(=O)[nH]c45)c(Cl)cc23)CC1` [Example 3-2, 8-(5-chloro-7-fluoro-3-(4-(2-propenoyl)-1-piperazinyl)-2,1-benzothiazol-6-yl)-2(1H)-quinolinone], the “Coupled exchange IC50” value is greater than 250 µM. With `C=CC(=O)N1CC(Nc2snc3c(F)c(Br)c(Cl)cc23)C1` [Example 4-7, 1-(3-((6-bromo-5-chloro-7-fluoro-2,1-benzothiazol-3-yl)amino)-1-azetidinyl)-2-propen-1-one], the “Coupled exchange IC50” value was 125 µM. The result for `C=CC(=O)NC1CN(c2snc3c(F)c(-c4cc(OC)cc5ccccc45)c(Cl)cc23)C1` [Example 4-5, N-(1-(5-chloro-7-fluoro-6-(3-methoxy-1-naphthalenyl)-2,1-benzothiazol-3-yl)-3-azetidinyl)-2-propenamide] reads greater than 250 µM. With `C=CC(=O)N1CCN(c2nnc(-c3ccccc3)c3cc(Cl)c(-c4c(O)cccc4F)cc23)CC1` [Example 31, 2-(4-(4-acryloyl-1-piperazinyl)-7-chloro-1-phenyl-6-phthalazinyl)-3-fluorophenol], the “Coupled exchange IC50” value amounted to 123 µM. With `C=CC(=O)N1CCN(c2snc3c(F)c(-c4ccc(F)cc4F)c(Cl)cc23)CC1` [Example 3-7, 1-(4-(5-chloro-6-(2,4-difluorophenyl)-7-fluoro-2,1-benzothiazol-3-yl)-1-piperazinyl)-2-propen-1-one], the “Coupled exchange IC50” value stood at 6.98 µM. Regarding `C=CC(=O)N1CCN(c2snc3c(F)c(-c4nc(NC)cc5ccccc45)c(Cl)cc23)CC1` [Example 24, 1-(4-(5-Chloro-7-fluoro-6-(3-(methylamino)-1-isoquinolinyl)-2,1-benzothiazol-3-yl)-1-piperazinyl)-2-propen-1-one], the “Coupled exchange IC50” value is 6.20 µM. The result for `C=CC(=O)N1CCN(c2nnc(Cl)c3cc(-c4c(O)cccc4F)c(Cl)cc23)CC1` [Example 10-13, 1-(4-(4,7-dichloro-6-(2-fluoro-6-hydroxyphenyl)-1-phthalazinyl)-1-piperazinyl)-2-propen-1-one] reads 15.1 µM; that for `C=CC(=O)N1CCN(c2snc3c(F)c(-c4cc(N)ccc4F)c(Cl)cc23)CC1` [Example 3-14, 1-(4-(6-(5-amino-2-fluorophenyl)-5-chloro-7-fluoro-2,1-benzothiazol-3-yl)-1-piperazinyl)-2-propen-1-one], 5.64 µM.

In the case of `C=CC(=O)N1CCN(c2snc3c(F)c(-c4cc(O)cc5ncccc45)c(Cl)cc23)CC1` [Example 21, 1-(4-(5-chloro-7-fluoro-6-(7-hydroxy-5-quinolinyl)-2,1-benzothiazol-3-yl)-1-piperazinyl)-2-propen-1-one], the “Coupled exchange IC50” value worked out at 9.41 µM.
